Source: patent publication US4329473A, “Oxoalkanoic acid derivatives as inhibitors of angiotensin converting enzyme” (priority 1980, dated 1982)
pIC50: −log10 of the molar value. Where a SMILES comes first, the peptide text is derived from it.

System: angiotensin converting enzyme
Experiment: not given
Settings: literature; cited from earlier work

SMILES	inhibition of the converting enzyme (in words)
C[C@H](NC(=O)[C@@H](N)Cc1ccccc1)C(=O)N1CCC[C@H]1C(=O)O [phenylalanyl-alanyl-proline] (H-Phe-Ala-Pro-OH)	substantial degree of activity

Target: T1, porcine plasma angiotensin-converting enzyme (Sus scrofa, UniProt F1RRW5)
T1 construct: procine plasma angiotensin-converting enzyme; from tissue; host or cells: porcine plasma
T1 sequence (F1RRW5 34-1309): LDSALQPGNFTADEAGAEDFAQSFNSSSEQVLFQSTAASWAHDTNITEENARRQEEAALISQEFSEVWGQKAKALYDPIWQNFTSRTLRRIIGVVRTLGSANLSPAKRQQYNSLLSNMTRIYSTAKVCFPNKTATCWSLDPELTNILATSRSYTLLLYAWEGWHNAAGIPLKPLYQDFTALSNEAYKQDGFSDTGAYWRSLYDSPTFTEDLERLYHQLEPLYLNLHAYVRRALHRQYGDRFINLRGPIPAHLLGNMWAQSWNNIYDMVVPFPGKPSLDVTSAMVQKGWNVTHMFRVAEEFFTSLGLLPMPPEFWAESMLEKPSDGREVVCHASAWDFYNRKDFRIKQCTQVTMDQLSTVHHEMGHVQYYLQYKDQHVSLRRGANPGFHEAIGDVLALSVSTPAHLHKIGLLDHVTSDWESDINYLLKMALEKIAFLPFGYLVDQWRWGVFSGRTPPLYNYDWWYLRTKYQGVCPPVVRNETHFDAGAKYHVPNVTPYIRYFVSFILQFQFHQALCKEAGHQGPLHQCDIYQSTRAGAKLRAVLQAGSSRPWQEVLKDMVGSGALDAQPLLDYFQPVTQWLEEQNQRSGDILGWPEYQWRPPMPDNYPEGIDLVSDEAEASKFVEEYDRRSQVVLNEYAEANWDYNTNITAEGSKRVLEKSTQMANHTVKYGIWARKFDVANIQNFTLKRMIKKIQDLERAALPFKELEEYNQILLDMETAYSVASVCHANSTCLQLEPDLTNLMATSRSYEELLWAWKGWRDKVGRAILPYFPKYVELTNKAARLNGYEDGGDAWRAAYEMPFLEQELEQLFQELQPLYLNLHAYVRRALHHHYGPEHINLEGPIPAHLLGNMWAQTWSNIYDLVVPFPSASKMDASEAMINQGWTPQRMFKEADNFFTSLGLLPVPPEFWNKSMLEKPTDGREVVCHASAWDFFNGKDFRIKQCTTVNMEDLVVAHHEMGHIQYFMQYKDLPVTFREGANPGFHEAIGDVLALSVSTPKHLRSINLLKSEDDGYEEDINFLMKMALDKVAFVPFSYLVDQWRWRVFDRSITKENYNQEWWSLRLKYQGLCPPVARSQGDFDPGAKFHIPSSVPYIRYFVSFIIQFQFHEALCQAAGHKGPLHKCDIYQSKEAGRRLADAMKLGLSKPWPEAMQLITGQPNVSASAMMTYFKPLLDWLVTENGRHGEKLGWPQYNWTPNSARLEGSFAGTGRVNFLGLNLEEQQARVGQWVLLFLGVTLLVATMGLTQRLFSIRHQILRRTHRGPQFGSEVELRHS
Experiment: Angiotensin Converting Enzyme Inhibition Assay
Type: biochemical
Settings: compared with Captopril / other examples, Table II
Experimental: Said assay is described in the literature as follows: B. S. Tsai, M. J. Peach, M. C.
The Angiotensin Converting Enzyme Inhibition Assay represents a test procedure in which various compounds are tested for their ability to inhibit the conversion of the decapeptide angiotensin I or the tripeptide hippuryl-histidyl-leucine to its cleavage product, the dipeptide histidyl-leucine. This dipeptide is detected via its fluorescent condensation product with o-phthaladehyde.
For testing the effect of inhibitors on procine plasma angiotensin-converting enzyme, two assays were run in parallel. One contained the substrate (1-2 mM), enzyme (1 mg) and various concentrations (1 nM-10 mM) of an inhibitor, the other contained only the substrate and enzyme. The assays were conducted in sodium phosphate buffer, pH 7.6, under the conditions described in the article by Tsai, et al., supra.

effectiveness in angiotensin converting enzyme inhibition assay (in words)	SMILES
most effective compound	CC(CC(=O)C(Cc1ccccc1)NC(=O)c1ccccc1)C(=O)N1CCC[C@H]1C(=O)O (stereo partly drawn) [Example XIII, 5-Benzamido-4-oxo-2-methyl-6-phenylhexanoyl-L-proline]

Same assay, conditions: sodium phosphate buffer, pH 7.6; substrate 1-2 mM; inhibitor 1 nM-10 mM

pIC50	SMILES
6.62	O=C(NC(Cc1ccccc1)C(=O)CCC(=O)N1CCC[C@H]1C(=O)O)OCc1ccccc1 (stereo partly drawn) [Example III, 5-Benzyloxycarbonylamino-4-oxo-6-phenylhexanoyl-L-proline]
8.00	O=C(NC(Cc1ccc(OCc2ccccc2)cc1)C(=O)CCC(=O)N1CCC[C@H]1C(=O)O)c1ccccc1 (stereo partly drawn) [Example IX, 5-Benzamido-4-oxo-6-p-benzyloxyphenylhexanoyl-L-proline]
8.85	O=C(NC(Cc1ccccc1)C(=O)CCC(=O)N1CCC[C@H]1C(=O)O)c1ccco1 (stereo partly drawn) [Example V, 5-(2-Furoylamino)-4-oxo-6-phenylhexanoyl-L-proline]
8.33	O=C(NC(Cc1ccc(O)cc1)C(=O)CCC(=O)N1CCC[C@H]1C(=O)O)c1ccccc1 (stereo partly drawn) [Example X, 5-Benzamido-4-oxo-6-p-hydroxyphenylhexanoyl-L-proline]
8.24	O=C(NC(Cc1cccnc1)C(=O)CCC(=O)N1CCC[C@H]1C(=O)O)c1ccccc1 (stereo partly drawn) [Example XI, 5-Benzamido-4-oxo-6-(3-pyridyl)hexanoyl-L-proline]
7.33	CCCCCC(=O)NC(Cc1ccccc1)C(=O)CCC(=O)N1CCC[C@H]1C(=O)O (stereo partly drawn) [Example XIX, 5-n-Hexanoylamino-4-oxo-6-phenylhexanoyl-L-proline]
6.68	CCCCOC(=O)NC(Cc1ccccc1)C(=O)CCC(=O)N1CCC[C@H]1C(=O)O (stereo partly drawn) [Example XV, 5-n-Butyloxycarbonylamino-4-oxo-6-phenylhexanoyl-L-proline]
7.48	CCCCOC(=O)NC(Cc1ccccc1)C(=O)CC(C)C(=O)N1CCC[C@H]1C(=O)O (stereo partly drawn) [Example XVII, 5-n-Butyloxycarbonylamino-4-oxo-2-methyl-6-phenylhexanoyl-L-proline]
7.70	O=C(NC(Cc1ccccc1)C(=O)CCC(=O)N1CCC[C@H]1C(=O)O)c1ccncc1 (stereo partly drawn) [IV, 5-(4-Pyridyl)carbonylamino-4-oxo-6-phenylhexanoyl-L-proline]
7.70	O=C(CCC(=O)N1CCC[C@H]1C(=O)O)C(Cc1ccccc1)NC(=O)C1CCCO1 (stereo partly drawn) [VI, 5-(2-Tetrahydrofuroylamino)-4-oxo-6-phenylhexanoyl-L-proline]
7.34	Cc1ccccc1C(=O)NC(Cc1ccccc1)C(=O)CCC(=O)N1CCC[C@H]1C(=O)O (stereo partly drawn) [VII, 5-O-Toluoylamino-4-oxo-6-phenylhexanoyl-L-proline]
8.85	COc1ccc(CC(NC(=O)c2ccccc2)C(=O)CCC(=O)N2CCC[C@H]2C(=O)O)cc1OC (stereo partly drawn) [VIII, 5-Benzamido-4-oxo-6-(3,4-dimethoxyphenyl)hexanoyl-L-proline]
6.64	CC(C)C(CC(=O)C(Cc1ccccc1)NC(=O)c1ccccc1)C(=O)N1CCC[C@H]1C(=O)O (stereo partly drawn) [XIV, 5-Benzamido-4-oxo-2-isopropyl-6-phenylhexanoyl-L-proline]
6.48	CC(=O)NC(Cc1ccccc1)C(=O)CCC(=O)N1CCC[C@H]1C(=O)O (stereo partly drawn) [XVIII, 5-Acetylamino-4-oxo-6-phenylhexanoyl-L-proline]
6.19	CCCCCCCC(=O)NC(Cc1ccccc1)C(=O)CCC(=O)N1CCC[C@H]1C(=O)O (stereo partly drawn) [XX, 5-n-Octanoylamino-4-oxo-6-phenylhexanoyl-L-proline]
5.19	CCCCCCCCCC(=O)NC(Cc1ccccc1)C(=O)CCC(=O)N1CCC[C@H]1C(=O)O (stereo partly drawn) [XXI, 5-n-Decanoylamino-4-oxo-6-phenylhexanoyl-L-proline]
